Test results as given in patent US7163918B2, “Iodothyronine compositions” (New River Pharmaceuticals Inc., priority 2000, dated 2007).
Where a SMILES comes first, the peptide text is derived from it. [ ]: non-standard residue; d: D form. Thyronine(3,5,3'-I3) = N[C@@H](Cc1cc(I)c(Oc2ccc(O)c(I)c2)c(I)c1)C(=O)O

Experiments:
[1] = Solid dose oral delivery, total T3 serum concentration AUC
[2] = target: amidase (EC 3.5.1.4; from Pseudomonas aeruginosa) (Pseudomonas aeruginosa, UniProt P11436); details: Table 1; 37° C., 24 hours
[3] = parameters: species or system Sprague-dawley rats; details: rat, in vivo
Procedure: (§1) Compounds were tested in Sprague-dawley rats (˜250 g). […] Rats were dosed immediately following 0 hour serum collection.

[4] = rat, in vivo
[5] = Solution dose oral delivery, T4 N-capped trimer vs. T4 sodium salt, total serum T4; parameters: species or system Sprague-dawley rats; details: rat, in vivo
Procedure: as §1

Sequence of amidase (EC 3.5.1.4; from Pseudomonas aeruginosa) (P11436 whole entry): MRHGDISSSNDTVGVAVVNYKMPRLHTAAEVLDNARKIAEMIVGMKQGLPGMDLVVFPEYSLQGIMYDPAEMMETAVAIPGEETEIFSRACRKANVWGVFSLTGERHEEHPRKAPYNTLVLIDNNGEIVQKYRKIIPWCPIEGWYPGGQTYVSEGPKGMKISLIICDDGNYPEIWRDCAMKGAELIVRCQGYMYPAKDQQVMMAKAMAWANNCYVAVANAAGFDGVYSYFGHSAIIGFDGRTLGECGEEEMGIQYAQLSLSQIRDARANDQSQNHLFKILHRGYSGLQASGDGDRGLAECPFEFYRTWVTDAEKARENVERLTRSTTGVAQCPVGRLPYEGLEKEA

N[C@@H](CCC(=O)O)C(=O)N[C@@H](CCC(=O)O)C(=O)N[C@@H](CCC(=O)O)C(=O)N[C@@H](CCC(=O)O)C(=O)N[C@@H](CCC(=O)O)C(=O)N[C@@H](CCC(=O)O)C(=O)N[C@@H](CCC(=O)O)C(=O)N[C@@H](CCC(=O)O)C(=O)N[C@@H](CCC(=O)O)C(=O)N[C@@H](CCC(=O)O)C(=O)N[C@@H](CCC(=O)O)C(=O)N[C@@H](CCC(=O)O)C(=O)N[C@@H](CCC(=O)O)C(=O)N[C@@H](CCC(=O)O)C(=O)N[C@@H](CCC(=O)O)C(=O)N[C@@H](Cc1cc(I)c(Oc2ccc(O)c(I)c2)c(I)c1)C(=O)N[C@@H](CCC(=O)O)C(=O)N[C@@H](CCC(=O)O)C(=O)N[C@@H](CCC(=O)O)C(=O)N[C@@H](CCC(=O)O)C(=O)O [20-Mer] (H-EEEEEEEEEEEEEEE[Thyronine(3,5,3'-I3)]EEEE-OH)
total AUC divided by total AUC for T3 sodium ([1]; Study No. 12, rats): (69%)

CCCCCCCC(=O)N[C@@H](Cc1cc(I)c(Oc2ccc(OC(=O)CCCCCCC)c(I)c2)c(I)c1)C(=O)O [C8T3(C8), N-Octanoyl-L-triiodothyronine(O-octanoyl)]
enzymatic release of T3, Amidase [2]: 0.0

N[C@@H](CCC(=O)O)C(=O)N[C@@H](Cc1cc(I)c(Oc2ccc(O)c(I)c2)c(I)c1)C(=O)O [C-Capped Dimer]
total AUC divided by total AUC for T3 sodium ([1]; Study No. 13, rats): (81%)

N[C@@H](CCC(=O)O)C(=O)N[C@@H](CCC(=O)O)C(=O)N[C@@H](Cc1cc(I)c(Oc2ccc(O)c(I)c2)c(I)c1)C(=O)O [C-Capped Trimer]
total AUC divided by total AUC for T3 sodium ([1]; Study No. 13, rats): (89%)

N[C@@H](Cc1cc(I)c(Oc2ccc(O)c(I)c2)c(I)c1)C(=O)N[C@@H](CCC(=O)O)C(=O)O [N-Capped Dimer]
total AUC divided by total AUC for T3 sodium ([1]; Study No. 11, rats): (104%)

N[C@@H](Cc1cc(I)c(Oc2ccc(O)c(I)c2)c(I)c1)C(=O)N[C@@H](CCC(=O)O)C(=O)N[C@@H](CCC(=O)O)C(=O)O [T3 N-capped trimer, H-(T3)EE-OH]
increase of Cmax as compared to T3 sodium salt [3]: 65.2% | increase of mean AUC relative to the T3 sodium salt AUC [3]: 50.3% | increase of Δmax relative to the Δmax of T3 sodium salt [3]: 75.9% | increase of Cmax over the corresponding T3 sodium salt control [4]: 50.8% | increase of mean AUC relative to the corresponding T3 sodium salt control [4]: 72.1% | increase of Δmax over the corresponding T3 sodium salt control [4]: 85.6% | total AUC divided by total AUC for T3 sodium ([1]; Study No. 11, rats): 123% | total AUC divided by total AUC for T3 sodium ([1]; Study No. 11, rats, listed as N-Capped Trimer): (123%) | total AUC divided by total AUC for T3 sodium ([1]; Study No. 17, rats): (102%)

CCCCCCCCCCCCCCCC(=O)Oc1ccc(Oc2c(I)cc(CC(N)C(=O)O)cc2I)cc1I.O=C(O)C(F)(F)F (centres unmarked) [T3C16, Trioodothyronine Hexadeconoate—TFA]
enzymatic release of T3, Amidase [2]: 1.2

N[C@@H](Cc1cc(I)c(Oc2cc(I)c(O)c(I)c2)c(I)c1)C(=O)N[C@@H](CCC(=O)O)C(=O)N[C@@H](CCC(=O)O)C(=O)O [T4 N-capped trimer]
Tmax (time to reach maximal concentration) ([5]; Sprague-Dawley, po): 10.2 h | increase of Cmax as compared to the sodium salt [5]: 48% | increase of mean AUC relative to the T4 sodium salt AUC [5]: 115% | increase of Δmax (Δ at Cmax) relative to the Δmax of T4 sodium salt [5]: 68% | Cmax +/− SD ([5]; po): 13.0 ± 0.6 ng/dL | Cmax, Percent of T4 sodium salt ([5]; po): 148% | Delta @ Cmax (change in total T4 serum levels from 0 hour level) ([5]; po): 6.7 ± 1.5 ng/dL | Delta @ Cmax, Percent of T4 sodium salt ([5]; po): 168%
